According to US8143252B2, “Tetrahalogenated compounds useful as inhibitors of angiogenesis” (The United States of America as represented by the …, priority 2006, dated 2012):
Like-named read-outs stand apart in the source and are kept apart here. Marks after values point to notes of the source that are not given here.

Experiments:
[1] = system: rat aortic ring microvessel outgrowth; test: rat aortic ring microvessel assay; format: cell-based; conditions: for activity at 50 µM: Rattus norvegicus, 96 h, read-out: Average of Growth [%]
Experimental: The anti-angiogenic activity of the compounds was tested following the procedure described in Lepper, E. R., Ng, S. S., Gutschow, M., Weiss, M., Hauschildt, S., Hecker, T. K., Luzzio, F. A., Eger, K., Figg, W. D., J. Med. Chem. 2004, Comparative molecular field analysis and comparative molecular similarity indices analysis of thalidomide analogues as angiogenesis inhibitors; 47(9):2219-27. Twelve-well tissue culture-grade plates were covered with 250 μL Matrigel and allowed to gel for 30 to 45 minutes at 37° C., 5% CO2. Thoracic aortas were excised from 6- to 8-week-old male Sprague-Dawley rats, and the fibroadipose tissue was removed. The aortas were cut into 1 mm-long cross-sections and placed on the Matrigel coated wells. They were then covered with an additional 250 μL Matrigel and allowed to gel for 30 to 45 minutes at 37° C., 5% CO2. The rings were cultured for 24 hours in 1 mL EBM-2. After 24 hours, the medium was removed and replaced with 1 mL EBM-2 (Clonetics Corp.), supplemented with fetal bovine serum (2%), ascorbic acid, hydrocortisone, heparin, and amphotericin. Each selected compound was dissolved in DMSO and added to the EBM-2, before it was added to the well. Each selected compound was administered daily for four days at a daily dosage of 50 μM. Photos were taken on Day 5. DMSO alone was used as a control baseline. Carboxyamidotriazole (“CAI” from NCI, Bethesda, Md.) was used as a positive control. The vascular outgrowth was quantified using Adobe Photoshop (Adobe Systems, Inc., San Jose, Calif.) and the results are provided below in Tables 1 and 2.

[2] = system: Human prostate cancer cell lines (PC3s); test: PC3 Proliferation Assay (hemocytometer count, trypan blue); format: cell-based; conditions: 24 hours, cell count normalized to DMSO control, concentration not given
Experimental: (§1) Human umbilical vein endothelial cells (HUVECs (Clonetics)) were maintained in EGM-II, supplemented with a Bullet-Kit (Clonetics). Human prostate cancer cell lines (PC3s (ATCC)) were maintained in RPMI-1640, supplemented with 10% fetal bovine serum. Both cell lines were incubated at 37° C., in a 5% CO2 atmosphere. Cells were seeded onto 12-well plates at a density of 30,000 cells/well and allowed to attach overnight at 37° C. and 5% CO2. The culture medium was then aspirated, and fresh culture medium containing either the vehicle (0.5% DMSO) or drug solution in 0.5% DMSO was added. After 24 hours, media was removed, then cells were trypsinized and counted with a hemocytometer, using trypan blue to exclude non-viable cells. Each compound was tested in triplicate and the cell count was normalized to the controls, to give the % growth. The results are shown below in Tables 3 and 4, and in FIGS. 5 and 6.

[3] = system: HUVEC; test: HUVEC Proliferation Assay, CCK-8 counting; format: cell-based, human; conditions: 24 h incubation
Experimental: as §1
(§2) The experiments for the data in Table 5 was performed as described above, except that the Table 5 experiments were performed in […] (at two concentrations), and the CCK-8 Cell Counting Kit (Dajindo Technologies) was utilized after treating for 24 hours.

[4] = system: PC3; test: PC3 Proliferation Assay, CCK-8 counting; format: cell-based, human; conditions: 24 h incubation
Experimental: as §1, §2

[5] = system: Human umbilical vein endothelial cells (HUVECs); test: HUVEC Proliferation Assay (hemocytometer count, trypan blue); format: cell-based; conditions: 24 hours, cell count normalized to DMSO control, concentration not given
Experimental: as §1

[6] = system: rat aortic ring microvessel outgrowth; conditions: 50 μM; data reported in Lepper et al., J. Med. Chem. 2004; cited from earlier work

CN1C(=O)NC(=O)C(C)(N2C(=O)c3c(F)c(F)c(F)c(F)c3C2=O)C1=O (racemic) [Compound 19a, 1,5-Dimethyl-5-(4,5,6,7-tetrafluoro-1,3-dihydro-1,3-dioxo-2H-isoindol-2-yl)-2,4,6-(1H,3H,5H)-pyrimidinetrione]
activity at 50 µM [1]: 0.12%

CCCN1C(=O)NC(=O)C(C)(N2C(=O)c3c(F)c(F)c(F)c(F)c3C2=O)C1=O (racemic) [Compound 19b, 5-Methyl-1-propyl-5-(4,5,6,7-tetrafluoro-1,3-dihydro-1,3-dioxo-2H-isoindol-2-yl)-2,4,6(1H,3H,5H)-pyrimidinetrione]
activity at 50 µM [1]: 0.13%
Average of Growth [%] [2]: 1.50%

CC(C)N1C(=O)NC(=O)C(C)(N2C(=O)c3c(F)c(F)c(F)c(F)c3C2=O)C1=O (racemic) [Compound 19c, 1-Isopropyl-5-methyl-5-(4,5,6,7-tetrafluoro-1,3-dihydro-1,3-dioxo-2H-isoindol-2-yl)-2,4,6(1H,3H,5H)-pyrimidinetrione]
activity at 50 µM [1]: 0.14%
Average of Growth [%] [2]: 3.75%

CCN1C(=O)NC(=O)C(CC)(N2C(=O)c3c(F)c(F)c(F)c(F)c3C2=O)C1=O (racemic) [Compound 19d, 1,5-Diethyl-5-(4,5,6,7-tetrafluoro-1,3-dihydro-1,3-dioxo-2H-isoindol-2-yl)-2,4,6-(1H,3H,5H)-pyrimidinetrione]
activity at 50 µM [1]: 0.13%

CCCN1C(=O)NC(=O)C(CC)(N2C(=O)c3c(F)c(F)c(F)c(F)c3C2=O)C1=O (racemic) [Compound 19e, 5-Ethyl-1-propyl-5-(4,5,6,7-tetrafluoro-1,3-dihydro-1,3-dioxo-2H-isoindol-2-yl)-2,4,6(1H,3H,5H)-pyrimidinetrione]
activity at 50 µM [1]: 0.12%
HUVEC Growth (5 uM) (Control = 100%) Mean [3]: 1.68%
HUVEC Growth (10 uM) (Control = 100%) Mean [3]: 2.14%
PC3 Growth (5 uM) (Control = 100%) Mean [4]: 31.02%
PC3 Growth (10 uM) (Control = 100%) Mean [4]: 9.67%

CCN1C(=O)NC(=O)C(C)(N2C(=O)c3c(F)c(F)c(F)c(F)c3C2=O)C1=O (racemic) [Compound 19f, 1-Ethyl-5-methyl-5-(4,5,6,7-tetrafluoro-1,3-dihydro-1,3-dioxo-2H-isoindol-2-yl)-2,4,6(1H,3H,5H)-pyrimidinetrione]
activity at 50 µM [1]: 23.8%
HUVEC Growth (5 uM) (Control = 100%) Mean [3]: 27.17%
HUVEC Growth (10 uM) (Control = 100%) Mean [3]: 9.00%
PC3 Growth (5 uM) (Control = 100%) Mean [4]: 25.95%
PC3 Growth (10 uM) (Control = 100%) Mean [4]: 10.94%

CCC1(N2C(=O)c3c(F)c(F)c(F)c(F)c3C2=O)C(=O)NC(=O)N(C(C)C)C1=O (racemic) [Compound 19g, 5-Ethyl-1-isopropyl-5-(4,5,6,7-tetrafluoro-1,3-dihydro-1,3-dioxo-2H-isoindol-2-yl)-2,4,6(1H,3H,5H)-pyrimidinetrione]
activity at 50 µM [1]: 0.13%
Average of Growth [%] [2]: 1.50%

CC1(N2C(=O)c3c(F)c(F)c(F)c(F)c3C2=O)C(=O)NC(=O)N(C2CCCCC2)C1=O (racemic) [Compound 19h, 1-Cyclohexyl-5-methyl-5-(4,5,6,7-tetrafluoro-1,3-dihydro-1,3-dioxo-2H-isoindol-2-yl)-2,4,6(1H,3H,5H)-pyrimidinetrione]
activity at 50 µM [1]: 11.8%

CCC1(N2C(=O)c3c(F)c(F)c(F)c(F)c3C2=O)C(=O)NC(=O)N(C2CCCCC2)C1=O (racemic) [Compound 19i, 1-Cyclohexyl-5-ethyl-5-(4,5,6,7-tetrafluoro-1,3-dihydro-1,3-dioxo-2H-isoindol-2-yl)-2,4,6(1H,3H,5H)-pyrimidinetrione]
activity at 50 µM [1]: 11.2%

CN1C(=O)NC(=O)C(C)(NC(=O)c2cc(F)c(F)c(F)c2F)C1=O (racemic) [Compound 20a, N-(Hexahydro-1,5-dimethyl-2,4,6-trioxo-5-pyrimidinyl)-2,3,4,5-tetrafluorobenzamide]
activity at 50 µM [1]: 58.3%

CCCN1C(=O)NC(=O)C(C)(NC(=O)c2cc(F)c(F)c(F)c2F)C1=O (racemic) [Compound 20b, N-(Hexahydro-5-methyl-2,4,6-trioxo-1-propyl-5-pyrimidinyl)-2,3,4,5-tetrafluorobenzamide]
activity at 50 µM [1]: 23.1%

CC(C)N1C(=O)NC(=O)C(C)(NC(=O)c2cc(F)c(F)c(F)c2F)C1=O (racemic) [Compound 20c, N-(Hexahydro-1-isopropyl-5-methyl-2,4,6-trioxo-5-pyrimidinyl)-2,3,4,5-tetrafluorobenzamide]
activity at 50 µM [1]: 5.63%

CCN1C(=O)NC(=O)C(CC)(NC(=O)c2cc(F)c(F)c(F)c2F)C1=O (racemic) [Compound 20d, N-(1,5-Diethyl-hexahydro-2,4,6-trioxo-5-pyrimidinyl)-2,3,4,5-tetrafluorobenzamide]
activity at 50 µM [1]: 31.1%
HUVEC Growth (5 uM) (Control = 100%) Mean [3]: 11.46%
HUVEC Growth (10 uM) (Control = 100%) Mean [3]: 14.53%
PC3 Growth (10 uM) (Control = 100%) Mean [4]: 87.73%

CCCN1C(=O)NC(=O)C(CC)(NC(=O)c2cc(F)c(F)c(F)c2F)C1=O (racemic) [Compound 20e, N-(5-Ethyl-hexahydro-2,4,6-trioxo-1-propyl-5-pyrimidinyl)-2,3,4,5-tetrafluorobenzamide]
activity at 50 µM [1]: 0.19%
Average of Growth [%] [5]: 24.05%
Average of Growth [%] [2]: 26.27%

CCN1C(=O)NC(=O)C(C)(NC(=O)c2cc(F)c(F)c(F)c2F)C1=O (racemic) [Compound 20f, N-(1-Ethyl-hexahydro-5-methyl-2,4,6-trioxo-5-pyrimidinyl)-2,3,4,5-tetrafluorobenzamide]
activity at 50 µM [1]: 16.8%

CCC1(NC(=O)c2cc(F)c(F)c(F)c2F)C(=O)NC(=O)N(C(C)C)C1=O (racemic) [Compound 20g, N-(5-Ethyl-hexahydro-1-isopropyl-2,4,6-trioxo-5-pyrimidinyl)-2,3,4,5-tetrafluorobenzamide]
activity at 50 µM [1]: 0.1%
Average of Growth [%] [5]: 62.03%
Average of Growth [%] [2]: 38.46%

CC1(NC(=O)c2cc(F)c(F)c(F)c2F)C(=O)NC(=O)N(C2CCCCC2)C1=O (racemic) [Compound 20h, N-(1-Cyclohexyl-hexahydro-5-methyl-2,4,6-trioxo-5-pyrimidinyl)-2,3,4,5-tetrafluorobenzamide]
activity at 50 µM [1]: 16.5%
Average of Growth [%] [5]: 91.14%
Average of Growth [%] [2]: 34.52%

CCC1(NC(=O)c2cc(F)c(F)c(F)c2F)C(=O)NC(=O)N(C2CCCCC2)C1=O (racemic) [Compound 20i, N-(1-Cyclohexyl-5-ethyl-hexahydro-2,4,6-trioxo-5-pyrimidinyl)-2,3,4,5-tetrafluorobenzamide]
activity at 50 µM [1]: 9.73%

CCC1(NC(=O)c2cc(F)c(F)c(F)c2F)C(=O)NC(=O)N(c2ccccc2)C1=O (racemic) [Compound 20k, N-(5-Ethyl-hexahydro-2,4,6-trioxo-1-phenyl-5-pyrimidinyl)-2,3,4,5-tetrafluorobenzamide]
activity at 50 µM [1]: 18.1%

NC(=O)c1nnn(Cc2cc(Cl)c(C(=O)c3ccc(Cl)cc3)c(Cl)c2)c1N [CAI, Carboxyamidotriazole, reference compound]
activity at 50 µM ([1]; phthalimides 19, 50 μM daily for four days, DMSO control = 100): 4.03%
Average of Growth [%] ([1]; tetrafluorobenzamides 20, 50 μM daily for four days, DMSO control = 100): 4.03%

CCC1(N2C(=O)c3c(F)c(F)c(F)c(F)c3C2=O)C(=O)NC(=O)N(c2ccccc2)C1=O (stereo not drawn) [Compound 19k]
Average of Growth [%] [6]: 24.25^[a] %
